Data: patent US9034906B2, “EP4 agonist” (Asahi Glass Company, Limited, priority 2008, dated 2015)

Experiments:
[1] = test system: T cell transfer colitis; assay: CD4+CD25- T cell transfer colitis model in mice; assay type: in vivo, mouse; settings: C.B-17/Icr-scid mice, oral 1 mg/kg once a day
Text: The effect on Crohn's disease, another type of inflammatory bowel disease, was studied. T cell transfer model is well known as a Crohn's disease model, which develops chronic […] or enteritis (see: References F, G, H). In addition, it can also be regarded as an animal model of intestinal Behcet's disease or simple ulcer, suffering from similar intestinal ulcer accompanied by activation of T cells (see: References I, J).
Female BALB/cA Jcl mice, 6 weeks old, body weight 19-23 g (CLEA Japan, Inc.) and female C.B-17/Icr-scid mice (6 weeks old, CLEA Japan, Inc.) were purchased, acclimated for 1 week and used for the study.
After laparotomy under ether anesthesia, BALB/cA Jcl mice were exsanguinated to death through the abdominal aorta and caudal vena cava, and the spleen was isolated. Splenocytes were prepared from the spleen and then CD4^+CD25^− T cells were prepared with a CD4^+ T cell Isolation Kit (No. 130-090-860, Milky Biotech Co., Ltd.) and CD25-Biotin antibody (No. 130-092-569, Milky Biotech Co., Ltd.). The cells were separated using the autoMACS Separator (Milky Biotech Co., Ltd.). The separated CD4^+CD25^− T cells were suspended in physiological phosphate buffer solution, and 2.5×10^5 cells per animal were intraperitoneally administered to C.B-17/Icr-scid mice to induce colitis.
One mg/kg of compound F or prednisolone was initially administered at 5 hr before transfer of CD4^+CD25^− T cells, and orally administered thereafter once a day, daily, for 20 days. To the control group was orally administered a solvent (1 vol % ethanol solution) at 10 mL/kg. A clinical endpoint was the sum of stool consistency score (0-5), fecal occult blood score (0-4) and body weight decrease score (0-5), termed as the Disease Activity Index score (hereinafter to be abbreviated as DAI score: highest score 14). The stool consistency score was graded for the hardness of stool as normal (0), slightly loose (1), somewhat loose (2), loose (3), considerably loose (4) and diarrhea (5). The fecal occult blood score was evaluated in the same manner as in Example 23. The body weight decrease score was graded for the changes in the body weight as increase (0), decrease of less than 3% (1), decrease of not less than 3% and less than 6% (2), decrease of not less than 6% and less than 9% (3), decrease of not less than 9% and less than 12% (4), and decrease of not less than 12% (5). Eight to 10 mice were used for each group and the results were expressed as average.

[2] = test system: dextran sodium sulfate-induced colitis; assay: Remission/relapse model of dextran sodium sulfate-induced colitis in mice, therapeutic; assay type: in vivo, mouse; settings: compound F 1 mg/kg, SASP 100 mg/kg, oral once a day for 50 days
Text: Next, therapeutic effect of compound F on colitis was studied in a chronic model. Female BALB/c mice, 6 weeks old, body weight about 20 g (Japan SLC) were purchased, acclimated for 1 week and used for the study. The mice were divided into a colitis induction group and a normal group. The colitis induction group was allowed to freely drink a 2.6 w/v % DSS (MP Biochemicals, M.W. 36,000-50,000, Lot No. 4556J) solution to induce colitis. On day 8 when the stool score (defined in Example 23) of the colitis induction group reached about 4.5, the mice were subdivided into a control group, a compound F 1 mg/kg administration group and a salazosulfapyridine (SIGMA, Lot No. 085K1930, hereinafter to be abbreviated as SASP) 100 mg/kg administration group. Then the mice were allowed to freely drink distilled water instead of DSS solution for 9 days (remission period). After the grouping, the stool score was evaluated every 3-4 days. […]
Compound F at a dose of 1 mg/kg and SASP at a dose of 100 mg/kg were orally administered once a day, daily, for 50 days from the initial remission period (day 8 from the start of 2.6 w/v % DSS drinking) to the fifth remission period (day 57 from the start of 2.6 w/v % DSS drinking). […] The remission ratio (%) was calculated as a ratio of mice in remission in each group. […]

[3] = Effect on blood pressure and heart rate in mice; assay type: in vivo, mouse; settings: ICR mice, intravenous 0.01 mg/kg, isoflurane anesthesia
Description: Male ICR mice (5 weeks old, Japan SLC) were purchased, acclimated for 6 days and used for the test. The animals were treated and measured under isoflurane inhalation anesthesia (anesthesia introduced at 2.5%, maintained at 1.8-2.1%), while body temperature was kept at 37° C. with a Heat Controller (ATC-402, Unique Medical Co., Ltd.). A catheter for administration of test compounds was inserted into the left femoral vein, and another catheter was inserted into the right femoral artery and connected to a pressure transducer to record each parameter of hemodynamics.
Compound F, the carboxylate form of compound F and BPS were intravenously administered at a dose of 0.01 mg/5 mL/kg, and the effect on the mean blood pressure and heart rate was evaluated with computer software for the analysis of hemodynamics (Fluclet, Dainippon Sumitomo Pharma Co., Ltd.). To the control group was intravenously administered a solvent (1.2% ethanol solution) at 5 mL/kg in the same manner. The results are expressed as a ratio of change in each parameter before and after the drug administration. Three to 6 animals were used for each group, and the results were expressed as average±standard deviation.

[4] = test system: eye; assay: Local irritative effect on the eye in rabbits; assay type: in vivo; settings: rabbit, single ocular instillation
Description: Japanese white rabbits (male, 10 weeks old, BIOTEC Co., Ltd.) were purchased, acclimated for 1 week and used for the study. Compound F solution (0.01 w/v %) was instilled once into the cornea of both eyes at a volume of 50 μL/eye with a micropipette. The intraocular pressure of the right eye was measured and the local irritative effect on the eye was evaluated using the left eye. After surface anesthesia with oxybupranol (Benoxil 0.4% instillation solution), the intraocular pressure was measured before ocular instillation and 1, 2, 3, 4, 6 and 8 hr after the instillation using a pneumatonometer (Alcon Ltd.). In addition, the local irritative effect on the eye was evaluated by scoring conjunctival congestion, conjunctival edema, cornea opacity, iris congestion, excretion and eye closure performance. For the evaluation, phosphate buffer was used for the solvent control group, and isopropyl unoprostone (Rescula eye drops, Santen Pharmaceutical Co., Ltd.) was used for comparison. Six animals were used for each group and the results were expressed as average.

Q: Which results are given for `Cc1cccc([C@@H](C)[C@H](O)/C=C/[C@@H]2[C@@H]3[C@H](C[C@H]2O)O/C(=C\CCCc2nnn[nH]2)C3(F)F)c1` [Compound F, 4-[(Z)-(1S,5R,6R,7R)-6-[(1E,3R,4R)-3-hydroxy-4-(m-tolyl)-1-pentenyl]-7-hydroxy-2-oxa-4,4-difluoro-bicyclo[3.3.0]octan-3-ylidene]-1-(tetrazol-5-yl)butane]?
A: DAI score [1]: comprehensively superior to prednisolone; Effect on body weight decrease score [1]: prevented the increase in the body weight decrease score almost completely; Effect on fecal occult blood score [1]: suppressed the increases in both the stool consistency score and the fecal occult blood score by almost half; Effect on stool consistency score [1]: suppressed the increases in both the stool consistency score and the fecal occult blood score by almost half; Effect on stool score in remission and relapse periods [2]: decreased the stool score early in the remission period, and suppressed an increase in the score in the relapse period; Effect on heart rate [3]: little effect; Maximum decrease ratio of mean blood pressure [3]: 16.2%; Local irritant effect on the eye [4]: conjunctival edema and eye closure were observed 1 hr after the instillation in some animals
